Each block holds one compound with its values, some of them ahead of it.
Experiments:
Format in all cases: cell-based
[1] = molecular target: adenosine A3 receptor (A3R) (Homo sapiens (Human), UniProt P0DMS8); test: Inhibition of adenosine A3 receptor cAMP signaling pathway (HTRF cAMP, CHO-K1/A3R cells); settings: Table 2; for IC50: CHO-K1/A3R cells, forskolin 10 μM, 2Cl-IB-MECA 5 nM, cAMP HTRF
Excerpt: (§1) Test Example 1. Determination of the inhibition activity of the compounds of the present invention on the adenosine A2a receptor (A2aR) cAMP signaling pathway, the adenosine A2b receptor (A2bR) cAMP signaling pathway, the adenosine A1 receptor (A1R) cAMP signaling pathway and the adenosine A3 receptor (A3R) cAMP signaling pathway.
(§2) The inhibition activity of the compounds of the present invention on the adenosine A2a receptor cAMP signaling pathway, the adenosine A2b receptor cAMP signaling pathway, the adenosine A1 receptor cAMP signaling pathway and the adenosine A3 receptor cAMP signaling pathway was determined by the following method. The experimental method is briefly described as follows:
2.3 Adenosine A3 receptor
(§3) CHO-K1/A3R cells were cultured in DMEM/F12 medium containing 10% fetal bovine serum and 10 μg/ml puromycin. The cells were digested with the cell separation buffer during the experiment. The cells were resuspended in the balanced salt buffer containing 20 mM HEPES and 0.1% bovine serum albumin and counted, and the cell density was adjusted to 5×10^5 cells/ml. In the 384-well plate, each well was added with 12.5 μl of cell suspension, and 6.25 μl of test compound (4× concentration) formulated with the balanced salt buffer containing 20 mM HEPES, 0.1% bovine serum albumin, 54 μM rolipram and 2.7 U/ml adenosine deaminase, and the plate was incubated at room temperature for 30 minutes. Each well was then added with 6.25 μl of forskolin and 2Cl-IB-MECA (4× concentration) formulated with the balanced salt buffer containing 20 mM HEPES, 0.1% bovine serum albumin, 54 μM rolipram and 2.7 U/ml adenosine deaminase, and the plate was incubated at room temperature for 30 minutes. The final concentrations of the compounds were: 100000, 10000, 1000, 100, 10, 1, 0.1 and 0 nM. The final concentration of forskolin was 10 μM. The final concentration of 2Cl-IB-MECA was 5 nM. Intracellular cAMP concentration was detected with the cAMP dynamic 2 kit. cAMP-d2 and Anti-cAMP-Eu-Cryptate were diluted respectively with the cAMP lysis buffer at a ratio of 1:4. Each well was added with 12.5 μl of diluted cAMP-d2, followed by addition of 12.5 μl of diluted Anti-cAMP-Eu-Cryptate, and the plate was incubated at room temperature in the dark for 1 hour. The HTRF signal values were read by the PHERAstar multi-function microplate reader.

[2] = molecular target: adenosine A1 receptor (A1R) (Homo sapiens (Human), UniProt P30542); test: Inhibition of adenosine A1 receptor cAMP signaling pathway (HTRF cAMP, CHO-K1/A1R cells); settings: Table 2; for IC50: CHO-K1/A1R cells, forskolin 10 μM, CPA 10 nM, cAMP HTRF; for IC50 ratio (A1R/A2aR): selectivity A1R over A2aR
Chain of adenosine A1 receptor (A1R) (P30542 whole entry): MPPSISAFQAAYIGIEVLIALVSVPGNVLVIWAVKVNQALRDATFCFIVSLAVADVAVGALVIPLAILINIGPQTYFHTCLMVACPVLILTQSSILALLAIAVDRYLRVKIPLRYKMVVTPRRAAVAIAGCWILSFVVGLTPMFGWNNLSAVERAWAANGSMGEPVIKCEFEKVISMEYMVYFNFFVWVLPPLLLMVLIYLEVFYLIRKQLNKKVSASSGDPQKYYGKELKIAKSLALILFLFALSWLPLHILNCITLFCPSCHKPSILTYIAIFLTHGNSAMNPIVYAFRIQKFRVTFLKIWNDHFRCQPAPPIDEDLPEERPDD
Excerpt: as §1, §2
2.2 Adenosine A1 receptor
as §3, with “CHO-K1/A1R cells were” for “CHO-K1/A3R cells were”, “serum and 1 mg/ml G418. The cells” for “serum and 10 μg/ml puromycin. The cells”, “cells were then resuspended in” for “cells were resuspended in”, “forskolin and N6-cyclopentyladenosine (4× concentration)” for “forskolin and 2Cl-IB-MECA (4× concentration)”, “concentration of CPA was 10” for “concentration of 2Cl-IB-MECA was 5”, “CPA was 10 nM. Intracellular” for “2Cl-IB-MECA was 5 nM. Intracellular”

[3] = molecular target: adenosine A2a receptor (A2aR) (Homo sapiens (Human), UniProt P29274); test: Inhibition of adenosine A2a receptor cAMP signaling pathway (HTRF cAMP, CHO-K1/A2aR cells)
Chain of adenosine A2a receptor (A2aR) (P29274 whole entry): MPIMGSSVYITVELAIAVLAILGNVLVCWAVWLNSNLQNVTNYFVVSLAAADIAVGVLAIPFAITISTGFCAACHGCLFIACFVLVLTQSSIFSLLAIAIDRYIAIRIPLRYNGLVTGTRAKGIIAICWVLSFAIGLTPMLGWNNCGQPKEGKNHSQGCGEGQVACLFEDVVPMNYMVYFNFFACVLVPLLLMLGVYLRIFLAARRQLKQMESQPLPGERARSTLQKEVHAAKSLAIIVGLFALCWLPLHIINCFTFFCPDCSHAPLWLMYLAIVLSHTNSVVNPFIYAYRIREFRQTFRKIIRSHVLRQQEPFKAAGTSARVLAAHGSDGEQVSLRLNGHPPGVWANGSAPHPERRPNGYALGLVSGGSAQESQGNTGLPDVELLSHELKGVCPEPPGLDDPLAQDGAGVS
Excerpt: as §1, §2
2.1 Adenosine A2a Receptor
CHO-K1/A2aR cells were cultured in DMEM/F12 medium containing 10% fetal bovine serum and 800 μg/ml bleomycin. The cells were digested with the cell separation buffer during the experiment. The cells were resuspended in the balanced salt buffer containing 20 mM HEPES and 0.1% bovine serum albumin and counted, and the cell density was adjusted to 10^6 cells/ml. In the 384-well plate, each well was added with 5 μl of cell suspension, and 2.5 μl of test compound (4× concentration) formulated with the balanced salt buffer containing 20 mM HEPES, 0.1% bovine serum albumin, 54 μM rolipram and 2.7 U/ml adenosine deaminase, and the plate was incubated at room temperature for 30 minutes. Each well was then added with 2.5 μl of […] (4× concentration) formulated with the balanced salt buffer containing 20 mM HEPES, 0.1% bovine serum albumin, 54 μM rolipram and 2.7 U/ml adenosine deaminase, and the plate was incubated at room temperature for 30 minutes. The final concentrations of the compounds were: 10000, 2000, 400, 80, 16, 3.2, 0.64, 0.128, 0.0256, 0.00512, and 0.001024 nM. The final concentration of […] was 20 nM. Intracellular cAMP concentration was detected with the cAMP dynamic 2 kit. cAMP-d2 and Anti-cAMP-Eu-Cryptate were diluted respectively with the cAMP lysis buffer at a ratio of 1:4. Each well was added with 5 μl of diluted cAMP-d2, followed by addition of 5 μl of diluted Anti-cAMP-Eu-Cryptate, and the plate was incubated at room temperature in the dark for 1 hour. The HTRF signal values were read by the PHERAstar multi-function microplate reader.

[4] = molecular target: adenosine A2b receptor (A2bR) (Homo sapiens (Human), UniProt P29275); test: Inhibition of adenosine A2b receptor cAMP signaling pathway (HTRF cAMP, CHO-K1/A2bR cells); settings: Table 3; for IC50: CHO-K1/A2bR cells, ethyl carbazole 1 μM, cAMP HTRF; for IC50 ratio (A2bR/A2aR): selectivity A2bR over A2aR
Chain of adenosine A2b receptor (A2bR) (P29275 whole entry): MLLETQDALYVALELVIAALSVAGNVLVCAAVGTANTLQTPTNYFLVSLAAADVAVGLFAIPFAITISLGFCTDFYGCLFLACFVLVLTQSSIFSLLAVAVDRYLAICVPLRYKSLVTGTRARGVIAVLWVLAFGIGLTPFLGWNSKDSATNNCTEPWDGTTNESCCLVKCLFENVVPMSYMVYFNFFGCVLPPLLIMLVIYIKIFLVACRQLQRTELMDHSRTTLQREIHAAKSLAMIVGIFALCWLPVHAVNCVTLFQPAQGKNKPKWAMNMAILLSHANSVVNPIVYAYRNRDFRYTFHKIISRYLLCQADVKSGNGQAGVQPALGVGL
Excerpt: as §1, §2
2.4 Adenosine A2b receptor (A2bR)
CHO-K1/A2bR cells were cultured in DMEM/F12 medium containing 10% fetal bovine serum and 1 mg/ml G418. The cells were digested with the cell separation buffer during the experiment. The cells were resuspended in the balanced salt buffer containing 20 mM HEPES and 0.1% bovine serum albumin and counted, and the cell density was adjusted to 10^6 cells/ml. In the 384-well plate, each well was added with 5 μl of cell suspension, and 2.5 μl of test compound (4× concentration) formulated with the balanced salt buffer containing 20 mM HEPES, 0.1% bovine serum albumin, 54 μM rolipram and 2.7 U/ml adenosine deaminase, and the plate was incubated at room temperature for 30 minutes. Each well was then added with 2.5 μl of […] (4× concentration) (Torcis, 1691/10) formulated with the balanced salt buffer containing 20 mM HEPES, 0.1% bovine serum albumin, 54 μM rolipram and 2.7 U/ml adenosine deaminase, and the plate was incubated at room temperature for 30 minutes. The final concentrations of the compounds were: 100000, 10000, 1000, 100, 10, 1, 0.1 and 0 nM. The final concentration of […] was 1 μM. Intracellular cAMP concentration was detected with the cAMP dynamic 2 kit. cAMP-d2 and Anti-cAMP-Eu-Cryptate were diluted respectively with the cAMP lysis buffer at a ratio of 1:4. Each well was added with 5 μl of diluted cAMP-d2, followed by addition of 5 μl of diluted Anti-cAMP-Eu-Cryptate, and the plate was incubated at room temperature in the dark for 1 hour. The HTRF signal values were read by the PHERAstar multi-function microplate reader.

Chain of adenosine A3 receptor (A3R) (P0DMS8 whole entry): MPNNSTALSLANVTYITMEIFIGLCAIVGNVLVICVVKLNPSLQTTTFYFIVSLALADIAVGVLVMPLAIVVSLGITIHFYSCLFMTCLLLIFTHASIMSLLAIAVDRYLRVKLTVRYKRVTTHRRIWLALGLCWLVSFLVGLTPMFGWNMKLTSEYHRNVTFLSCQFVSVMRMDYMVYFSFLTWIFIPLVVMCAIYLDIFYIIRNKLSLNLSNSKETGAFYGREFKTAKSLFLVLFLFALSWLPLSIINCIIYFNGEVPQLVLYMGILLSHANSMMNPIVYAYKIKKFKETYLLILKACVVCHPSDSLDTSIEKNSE

Structure (SMILES): Nc1nc(-c2ccccc2)c(-c2ccc3ncccc3c2)c2nncn12 [Example 3, 7-Phenyl-8-(quinolin-6-yl)-[1,2,4]triazolo[4,3-c]pyrimidin-5-amine]
IC50 ratio (A3R/A2aR) [1]: 2.9 × 10^4
IC50 [1]: 2000 nM
IC50 [2]: 18 nM
IC50 ratio (A1R/A2aR) [2]: 257
IC50 ([3]; Table 1, ethyl carbazole 20 nM): 0.07 nM
IC50 ([3]; Table 2, ethyl carbazole 20 nM): 0.07 nM

Structure (SMILES): Cc1cc(-c2c(-c3ccccc3)nc(N)n3cnnc23)cc2cccnc12 [Example 5, 8-(8-Methylquinolin-6-yl)-7-phenyl-[1,2,4]triazolo[4,3-c]pyrimidin-5-amine]
IC50 ratio (A3R/A2aR) [1]: 1.5 × 10^4
IC50 [1]: 1400 nM
IC50 [2]: 12 nM
IC50 ratio (A1R/A2aR) [2]: 133
IC50 ([3]; Table 1, ethyl carbazole 20 nM): 0.09 nM
IC50 ([3]; Table 2, ethyl carbazole 20 nM): 0.09 nM

Structure (SMILES): Nc1nc(-c2ccccc2)c(-c2cc(F)c3ncccc3c2)c2nncn12 [Example 7, 8-(8-Fluoroquinolin-6-yl)-7-phenyl-[1,2,4]triazolo[4,3-c]pyrimidin-5-amine]
IC50 ratio (A3R/A2aR) [1]: 3.1 × 10^4
IC50 [1]: 5000 nM
IC50 [2]: 16 nM
IC50 ratio (A1R/A2aR) [2]: 100
IC50 ([3]; Table 1, ethyl carbazole 20 nM): 0.16 nM
IC50 ([3]; Table 2, ethyl carbazole 20 nM): 0.16 nM

Structure (SMILES): Cc1cc(-c2c(-c3ccccc3)nc(N)n3cnnc23)cc(C)n1 [Example 11, 8-(2,6-Dimethylpyridin-4-yl)-7-phenyl-[1,2,4]triazolo[4,3-c]pyrimidin-5-amine]
IC50 ratio (A3R/A2aR) [1]: >6.7 × 10^4
IC50 [1]: > 10000 nM
IC50 [2]: 102 nM
IC50 ratio (A1R/A2aR) [2]: 680
IC50 ([3]; Table 1, ethyl carbazole 20 nM): 0.15 nM
IC50 ([3]; Table 2, ethyl carbazole 20 nM): 0.15 nM

Structure (SMILES): Cc1cc(-c2c(-c3ccc(F)cc3)nc(N)n3cnnc23)cc(C)n1 [Example 28, 8-(2,6-Dimethylpyridin-4-yl)-7-(4-fluorophenyl)-[1,2,4]triazolo[4,3-c]pyrimidin-5-amine]
IC50 ratio (A3R/A2aR) [1]: >1.9 × 10^4
IC50 [1]: > 10000 nM
IC50 [2]: 66 nM
IC50 ratio (A1R/A2aR) [2]: 127
IC50 ([3]; Table 1, ethyl carbazole 20 nM): 0.52 nM
IC50 ([3]; Table 2, ethyl carbazole 20 nM): 0.52 nM

Structure (SMILES): Cc1cc(-c2c(-c3ccccc3F)nc(N)n3cnnc23)cc(C(F)(F)F)n1 [Example 33, 7-(2-Fluorophenyl)-8-(2-methyl-6-(trifluoromethyl)pyridin-4-yl)-[1,2,4]triazolo[4,3-c]pyrimidin-5-amine]
IC50 ([3]; Table 1, ethyl carbazole 20 nM): 1.77 nM
IC50 ([3]; Table 3, ethyl carbazole 20 nM): 1.77 nM
IC50 [4]: 134 nM
IC50 ratio (A2bR/A2aR) [4]: 76

Structure (SMILES): Cc1cc(-c2c(-c3ccc(F)cc3)nc(N)n3cnnc23)cc(C(F)F)n1 [Example 51, 8-(2-(Difluoromethyl)-6-methylpyridin-4-yl)-7-(4-fluorophenyl)-[1,2,4]triazolo[4,3-c]pyrimidin-5-amine]
IC50 ratio (A3R/A2aR) [1]: >10^4
IC50 [1]: > 10000 nM
IC50 [2]: 418 nM
IC50 ratio (A1R/A2aR) [2]: 1161
IC50 ([3]; Table 1, ethyl carbazole 20 nM): 0.36 nM
IC50 ([3]; Table 2, ethyl carbazole 20 nM): 0.36 nM

Further lines, results first:

IC50 ratio (A3R/A2aR) [1]: >2 × 10^4
IC50 [1]: > 10000 nM
IC50 [2]: 71 nM
IC50 ratio (A1R/A2aR) [2]: 142
IC50 ([3]; Table 1, ethyl carbazole 20 nM): 0.5 nM
IC50 ([3]; Table 2, ethyl carbazole 20 nM): 0.5 nM
Structure (SMILES): Cc1cc(-c2c(-c3ccccc3F)nc(N)n3cnnc23)cc(Cl)n1 [Example 27, 8-(2-Chloro-6-methylpyridin-4-yl)-7-(2-fluorophenyl)-[1,2,4]triazolo[4,3-c]pyrimidin-5-amine]

IC50 ([3]; Table 1, ethyl carbazole 20 nM): 2.04 nM
IC50 ([3]; Table 3, ethyl carbazole 20 nM): 2.04 nM
IC50 [4]: 170 nM
IC50 ratio (A2bR/A2aR) [4]: 83
Structure (SMILES): Cc1cc(-c2c(-c3ccc(F)cc3F)nc(N)n3cnnc23)cc(Cl)n1 [Example 34, 8-(2-Chloro-6-methylpyridin-4-yl)-7-(2,4-difluorophenyl)-[1,2,4]triazolo[4,3-c]pyrimidin-5-amine]

IC50 ([3]; Table 1, ethyl carbazole 20 nM): 3.55 nM
IC50 ([3]; Table 3, ethyl carbazole 20 nM): 3.55 nM
IC50 [4]: 255 nM
IC50 ratio (A2bR/A2aR) [4]: 72
Structure (SMILES): Cc1cc(-c2c(-c3ccc(Cl)cc3F)nc(N)n3cnnc23)cc(Cl)n1 [Example 50, 7-(4-Chloro-2-fluorophenyl)-8-(2-chloro-6-methylpyridin-4-yl)-[1,2,4]triazolo[4,3-c]pyrimidin-5-amine]
